Data: patent publication US9555135B2, “Cobalt-based MRI contrast agent and imaging system” (BOARD OF REGENTS, THE UNIVERSITY OF TEXAS SYSTEM, priority 2011, dated 2017)

Columns and labels:
[1] = Relaxivity measurements on 1.5-T clinical MRI scanner; type: physicochemical
Method: All studies were performed on a 1.5-T clinical MRI scanner (Excite HD, GE Healthcare Technologies, Waukesha, Wis.) equipped with a high-performance gradient hardware package (Cardiac Resonance Module) and multichannel, fast-receiver hardware. The maximal achievable slew rate was 120 mT/m/s, maximal amplitude was 23 mT/m, and receiver bandwidth was 500 kHz. For relaxation measurements, the samples were placed in a room temperature water bath and imaged using a quadrature knee coil. T1-weighted measurements used an inversion recovery spin-echo technique (repetition time [TR]/[…] [TE], 5,000 ms/10 ms; inversion time, 50-4,000 ms). The T2-weighted measurements used a spin echo sequence (TR, 5,000 ms; TE, 20-1,000 ms). T2*-weighted measurements used a multi-echo, fast, gradient echo acquisition (TR, 600 ms; TE, 2-57 ms, with an echo spacing of 3.3 ms). All imaging data were analyzed using in-house software written in MATLAB (MathWorks, Natick, Mass.). The MRI sequences used for the ex vivo experiments have previously been described (see, Shetty, A. M., et al., Journal of Magnetic Resonance Imaging, Vol. 26, pp. 1672-1677 (2007)) and used a high-resolution, three-dimensional, spoiled gradient recalled echo acquisition (TR/TE, 15.6 ms/2.5 ms; flip angle, 60°; voxel size, 0.4×0.4×0.8 mm, receiver bandwidth, 488.3 Hz/pixel). The large flip angle was used to accentuate the signal from the ECAMs (with lower T1-weighted relaxation times) against the background. The high bandwidth and short echo time were chosen to minimize susceptibility artifacts in the region of the titanium markers.
Relaxivity measurements were obtained using the slope of the weighted least-squares regression of the relaxation rate versus concentration. […] The ratio of the relaxivities were >1 (r2/r1=1.21±0.29), which is consistent with T1-weighted positive contrast agents.

[2] = Toxicity arm: single intraprostatic CoCl2-NAC injection, clinical pathology, gross and microscopic pathology; type: in vivo, rat
Method: (§1) A toxicity and pharmacokinetic study of intraprostatically-administered cobalt dichloride-N-acetyl cysteine (CoCl2-NAC) was conducted in a rat model by the Pharmaceutical Development Center in the Department of Veterinary Medicine and Surgery (DVMS) facilities, U.T.M.D. Anderson Cancer Center, (Houston, Tex.). CoCl2-NAC is a novel MRI marker for prostate brachytherapy under development for use in localization of implanted radioactive seeds under MRI. […] The purpose of this study was to evaluate the distribution and potential toxicity of Co-NAC systemic exposure secondary to potential leakage from in-situ rupture of the Co-NAC-ECAMs in a male rat model.
(§2) The volume of CoCl2-NAC injected (9 μl) was predetermined on the assumption of 80-120 seeds leaking into the human prostate following implantation and scaling to a 150 gram male rat model. Cobalt disposition in plasma and tissues and organ toxicity were evaluated. For the pharmacokinetic arm, 60 male rats (20/group) were assigned to two dose groups and a vehicle control group and administered 1% (low concentration) and 10% (high concentration) CoCl2-NAC or vehicle control as an injection into the prostate. Following dosing, one cohort of 5 animals from each dose-level was sacrificed at 5, 30, and 60 minutes and 6 hours following the end of drug administration. Specific tissues (spleen, heart, brain, prostate, lung, kidney, liver, gut) from all animals were harvested, blotted, and weighed. An additional 3 animals were administered the high concentration and were maintained individually in metabolic cages. Urine and feces were collected at the end of 60 min, 6 and 24 hr intervals on the day prior to dosing and post dosing the following day. All samples were analyzed for total cobalt content by inductively-coupled plasma (ICP) analysis. For the toxicity arm, 30 male rats (10/group) were assigned to two dose groups and a vehicle control group and administered 1% and 10% CoCl2-NAC or vehicle control injected into the prostate. Groups of animals were sacrificed and necropsied on Study Days 1 (24 hrs) and 14 and blood and tissues collected for evaluation of clinical pathology and organ toxicity.

[3] = Pharmacokinetic arm: cobalt disposition in plasma, tissues, urine and feces after intraprostatic CoCl2-NAC injection, total cobalt by ICP; type: in vivo, rat
Method: as §1
as §2, with “Groups of animals were sacrificed and necropsied on Study Days 1 (24 hrs) and 14 and blood and tissues collected for evaluation of clinical pathology and organ toxicity.” left out

[4] = T1-weighted MRI visualization of contrast agent in seeds in agarose phantom
Method: Initially, the titanium and acrylic seeds were custom designed to have an outer and inner diameter of 3 mm and 1.5 mm and an outer length and inner hollow length of 4.5 mm and 3.5 mm, respectively. After injection of the cobalt-chloride complex contrast (CoCl2-NAC) agent into the manufactured seeds, MRI was performed on the seeds and strand-like combinations. For the canine prostate experiments, standard nonradioactive titanium seeds were incorporated into a synthesized strand, with acrylic and glass tubes cut with an outer diameter of 0.8 mm and length of 5.5 mm, injected with the CoCl2-NAC agent ([…]), and closed on the ends with two polymer taps.
All studies involving animals or animal tissues were performed under an Institutional Animal Care and Use Committee-approved protocol. For this experiment, after completion of another investigator's in vivo experiments, a canine prostate was excised at necropsy, placed in normal saline, and fixed in agarose gel (10% by weight, Type-A, Sigma-Aldrich, St. Louis, Mo.). The ECAMs were subsequently inserted into the prostate and imaged using MRI. Similarly, the ECAMs were inserted into an in-house-manufactured agarose phantom for direct visualization. The signal intensities of the agarose and prostatic tissue were similar on T1 weighted MRI, allowing substantial preliminary assessment of the relative contrast of the ECAMs without a tissue-based phantom. 1.5-T MRI T1-weighted sequences for imaging marker experiments.
All studies were performed on a 1.5-T clinical MRI scanner (Excite HD, GE Healthcare Technologies, Waukesha, Wis.) equipped with a high-performance gradient hardware package (Cardiac Resonance Module) and multichannel, fast-receiver hardware. The maximal achievable slew rate was 120 mT/m/s, maximal amplitude was 23 mT/m, and receiver bandwidth was 500 kHz. For relaxation measurements, the samples were placed in a room temperature water bath and imaged using a quadrature knee coil. T1-weighted measurements used an inversion recovery spin-echo technique (repetition time [TR]/[…] [TE], 5,000 ms/10 ms; inversion time, 50-4,000 ms). The T2-weighted measurements used a spin echo sequence (TR, 5,000 ms; TE, 20-1,000 ms). T2*-weighted measurements used a multi-echo, fast, gradient echo acquisition (TR, 600 ms; TE, 2-57 ms, with an echo spacing of 3.3 ms). All imaging data were analyzed using in-house software written in MATLAB (MathWorks, Natick, Mass.). […]

androgen receptor = androgen receptor (Homo sapiens, UniProt P10275); details: concentration; cited from earlier work
androgen receptor, sequence (P10275 whole entry, species assumed): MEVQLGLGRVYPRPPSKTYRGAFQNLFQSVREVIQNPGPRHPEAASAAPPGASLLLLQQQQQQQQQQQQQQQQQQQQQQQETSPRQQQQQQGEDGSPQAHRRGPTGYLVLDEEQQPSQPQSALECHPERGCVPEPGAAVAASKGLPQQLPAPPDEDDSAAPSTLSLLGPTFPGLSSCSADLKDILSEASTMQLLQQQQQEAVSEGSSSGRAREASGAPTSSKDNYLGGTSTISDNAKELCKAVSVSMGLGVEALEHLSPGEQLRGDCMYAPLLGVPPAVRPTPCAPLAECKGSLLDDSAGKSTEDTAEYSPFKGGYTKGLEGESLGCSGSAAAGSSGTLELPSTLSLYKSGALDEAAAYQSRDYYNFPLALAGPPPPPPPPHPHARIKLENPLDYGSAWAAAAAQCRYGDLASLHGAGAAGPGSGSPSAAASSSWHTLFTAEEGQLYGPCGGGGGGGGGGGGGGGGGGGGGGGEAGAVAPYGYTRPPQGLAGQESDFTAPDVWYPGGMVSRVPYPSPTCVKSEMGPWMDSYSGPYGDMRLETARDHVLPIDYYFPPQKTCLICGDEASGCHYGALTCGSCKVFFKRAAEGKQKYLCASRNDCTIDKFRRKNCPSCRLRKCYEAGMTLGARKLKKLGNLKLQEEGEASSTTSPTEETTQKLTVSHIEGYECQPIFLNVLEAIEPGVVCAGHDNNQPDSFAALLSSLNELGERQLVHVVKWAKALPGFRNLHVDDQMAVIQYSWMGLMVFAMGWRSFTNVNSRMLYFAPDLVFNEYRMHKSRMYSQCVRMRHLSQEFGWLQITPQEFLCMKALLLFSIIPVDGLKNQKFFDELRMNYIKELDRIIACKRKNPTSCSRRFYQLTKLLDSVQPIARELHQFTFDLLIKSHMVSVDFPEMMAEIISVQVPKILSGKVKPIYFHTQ

SMILES | ratio of the relaxivities r2/r1 [1] | spin-lattice relaxivity (r1) ([1]; room temperature water bath) [mM⁻¹ s⁻¹] | spin-spin relaxivity (r2) ([1]; room temperature water bath) [mM⁻¹ s⁻¹] | alterations in group means of hematological or clinical chemistry parameters ([2]; 1% and 10% CoCl2-NAC, Study Days 1 and 14) | microscopic examination (histopathology) ([2]; 1% and 10% CoCl2-NAC, any of the tested dose levels) | test article-related morbidity or mortality ([2]; 1% and 10% CoCl2-NAC, intraprostatic, male rat) | no-observed-adverse-effect-level (NOAEL) ([2]; single intra-prostatic administration, male rat, highest dose tested) [% CoCl2-NAC solution] | test article-related adverse clinical signs ([2]; toxicology arm, 1% and 10% CoCl2-NAC) | peri-prostatic cobalt concentration by 60 minutes ([3]; high dose group (10%), 4 of 5 animals) | cobalt in kidney tissue ([3]; low dose group (1%)) | cobalt in plasma ([3]; low dose group (1%)) | visualization of acrylic and glass hollow seeds containing the agent ([4]; 0.5-5 μL of aqueous solution (0.3-10 wt. %), phantom, 1.5-T MRI) | visualization inside the titanium seed ([4]; T1-weighted MRI, phantom) | signal on T1-weighted MRI inside polymer seeds ([4]; concentrations of 0.5-10%, in phantom) | signal on three-dimensional T1-weighted spoiled gradient recalled acquisition, compared with the various agents tested ([4]; in phantom) | effect on transcriptional activity of androgen receptor (androgen receptor)
CC(=O)N[C@@H](CS)C(=O)O.[Cl][Co][Cl] [CoCl2-NAC, cobalt-dichloride-N-acetyl cysteine] | 1.21±0.29 | 0.093 ± 0.022 | 0.105 ± 0.01 | No toxicologically-important dose-related alterations | no histopathologic lesions | No test article-related morbidity or mortality | 10 | No test article-related adverse clinical signs | not quantifiable | No cobalt was measurable | no measurable cobalt | well visualized | could not be visualized | increased signal | highest signal | –
CC(C)(O)C(=O)Nc1ccc([N+](=O)[O-])c(C(F)(F)F)c1 [hydroxyflutamide] | – | – | – | – | – | – | – | – | – | – | – | – | – | – | – | enhance the transcriptional activity
